According to US12324802B2, “Modulators of cystic fibrosis transmembrane conductance regulator” (Vertex Pharmaceuticals Incorporated, priority 2020, dated 2025):

What follows are compounds tested against T1, CFTR (F508del/MF-HBE cells) (Homo sapiens, UniProt P13569, DEL508-508) (assay: Ussing chamber assay of CFTR-mediated short-circuit currents (identification of potentiator compounds)). Conditions: CFTR-mediated ISC in F508del/MF-HBE cells; incubated 18-24 hours at 37° C. with 10 μM (14S)-8-[3-(2-{dispiro[2.0.2.1]heptan-7-yl}ethoxy)-1H-pyrazol-1-yl]-...-2,2,4-trione, 20% human serum.
T1 construct: human bronchial epithelial (HBE) cells derived from CF subjects heterozygous for F508del and a minimal function CFTR mutation; endogenous in cells; host or cells: primary human bronchial epithelial cells from CF subjects (F508del/MF genotype)
T1 sequence (P13569 with tags, fused parts or gaps DEL508-508): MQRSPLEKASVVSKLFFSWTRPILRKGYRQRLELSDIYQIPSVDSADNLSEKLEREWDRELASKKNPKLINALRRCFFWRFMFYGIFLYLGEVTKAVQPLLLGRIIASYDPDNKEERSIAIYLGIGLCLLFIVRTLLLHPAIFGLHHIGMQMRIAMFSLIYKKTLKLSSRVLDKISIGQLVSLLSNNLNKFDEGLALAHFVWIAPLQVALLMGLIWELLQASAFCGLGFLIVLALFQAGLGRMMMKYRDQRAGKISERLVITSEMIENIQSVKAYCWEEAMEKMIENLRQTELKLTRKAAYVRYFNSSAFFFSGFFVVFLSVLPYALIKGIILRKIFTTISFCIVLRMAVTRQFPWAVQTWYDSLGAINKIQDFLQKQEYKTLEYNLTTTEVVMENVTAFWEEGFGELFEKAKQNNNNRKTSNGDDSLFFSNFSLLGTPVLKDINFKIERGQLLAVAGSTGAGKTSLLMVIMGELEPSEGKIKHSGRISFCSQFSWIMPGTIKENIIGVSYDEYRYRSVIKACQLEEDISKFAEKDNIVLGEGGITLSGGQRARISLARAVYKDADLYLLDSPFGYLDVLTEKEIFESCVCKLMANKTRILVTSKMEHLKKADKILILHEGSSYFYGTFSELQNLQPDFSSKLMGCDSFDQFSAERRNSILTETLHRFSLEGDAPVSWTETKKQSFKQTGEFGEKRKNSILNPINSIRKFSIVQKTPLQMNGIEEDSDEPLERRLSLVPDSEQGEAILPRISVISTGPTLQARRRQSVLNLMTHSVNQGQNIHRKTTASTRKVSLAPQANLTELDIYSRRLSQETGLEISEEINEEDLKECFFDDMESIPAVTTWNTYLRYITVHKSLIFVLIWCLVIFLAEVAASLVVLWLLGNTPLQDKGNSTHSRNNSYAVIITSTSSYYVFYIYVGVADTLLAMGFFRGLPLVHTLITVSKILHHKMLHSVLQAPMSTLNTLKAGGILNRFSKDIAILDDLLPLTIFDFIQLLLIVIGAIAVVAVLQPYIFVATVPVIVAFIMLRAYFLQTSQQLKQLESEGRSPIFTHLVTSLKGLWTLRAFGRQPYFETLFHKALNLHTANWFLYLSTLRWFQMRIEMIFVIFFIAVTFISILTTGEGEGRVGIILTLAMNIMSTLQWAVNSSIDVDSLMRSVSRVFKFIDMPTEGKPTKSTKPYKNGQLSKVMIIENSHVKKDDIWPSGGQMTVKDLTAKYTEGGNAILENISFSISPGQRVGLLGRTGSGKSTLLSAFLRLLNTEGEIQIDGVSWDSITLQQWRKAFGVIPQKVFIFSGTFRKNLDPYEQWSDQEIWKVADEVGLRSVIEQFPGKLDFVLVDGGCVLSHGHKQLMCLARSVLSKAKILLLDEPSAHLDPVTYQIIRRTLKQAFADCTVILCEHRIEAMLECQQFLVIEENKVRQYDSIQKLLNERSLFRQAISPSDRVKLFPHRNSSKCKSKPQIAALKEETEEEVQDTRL
Assay type: cell-based
Method in brief: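 F508del/minimal-function HBE cultures grown at air-liquid interface were incubated for 18–24 h at 37 °C with potentiator plus 10 μM corrector, in 20% human serum, and compounds stayed present during recording. Transepithelial ISC was recorded at 0 mV and 37 °C with 30 μM apical amiloride. CFTR current was taken as the peak response to 20 μM forskolin minus the steady state after a 20 μM inhibitor cocktail.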

| EC50 [nM] | Structure (SMILES) |
| --- | --- |
| > 1000 | Nc1cc(C(F)(F)F)c2nc1-c1nnc(o1)C(O)(C(F)(F)F)c1ccc(F)c(c1)CCC[C@@H]1CCCN21 (single isomer, unassigned) [Compound 130] |
| < 500 | Nc1cc(C(F)(F)F)c2nc1-c1nnc(o1)C(O)(C(F)(F)F)c1ccc(F)c(c1)CCC[C@@H]1CCCN21 (single isomer, unassigned) [Compound 131] |
| > 1000 | Nc1cc(S(=O)(=O)c2ccccc2)c2nc1-c1nnc(o1)C(O)(C(F)(F)F)CCCCC[C@@H]1CCCN21 (single isomer, unassigned) [Compound 140] |
| < 500 | Nc1cc(S(=O)(=O)c2ccccc2)c2nc1-c1nnc(o1)C(O)(C(F)(F)F)CCCCC[C@@H]1CCCN21 (single isomer, unassigned) [Compound 141] |
| < 500 | CN(C)C(=O)C1CCCCCC(O)(C(F)(F)F)C2=NN=C(O2)c2nc(c(C(F)(F)F)cc2N)N1 (single isomer, unassigned) [Compound 148, 17-amino-6-hydroxy-N,N-dimethyl-6,15-bis(trifluoromethyl)-19-oxa-3,4,13,18-tetrazatricyclo[12.3.1.12,5]nonadeca-1(18),2,4,14,16-pentaene-12-carboxamide] |
| > 1000 | CN(C)C(=O)C1CCCCCC(O)(C(F)(F)F)C2=NN=C(O2)c2nc(c(C(F)(F)F)cc2N)N1 (single isomer, unassigned) [Compound 149, 17-amino-6-hydroxy-N,N-dimethyl-6,15-bis(trifluoromethyl)-19-oxa-3,4,13,18-tetrazatricyclo[12.3.1.12,5]nonadeca-1(18),2,4,14,16-pentaene-12-carboxamide] |
| > 1000 | CN(C)C(=O)C1CCCCCC(O)(C(F)(F)F)C2=NN=C(O2)c2nc(c(C(F)(F)F)cc2N)N1 (single isomer, unassigned) [Compound 150, 17-amino-6-hydroxy-N,N-dimethyl-6,15-bis(trifluoromethyl)-19-oxa-3,4,13,18-tetrazatricyclo[12.3.1.12,5]nonadeca-1(18),2,4,14,16-pentaene-12-carboxamide] |
| > 1000 | CN(C)C(=O)C1CCCCCC(O)(C(F)(F)F)C2=NN=C(O2)c2nc(c(C(F)(F)F)cc2N)N1 (single isomer, unassigned) [Compound 151, 17-amino-6-hydroxy-N,N-dimethyl-6,15-bis(trifluoromethyl)-19-oxa-3,4,13,18-tetrazatricyclo[12.3.1.12,5]nonadeca-1(18),2,4,14,16-pentaene-12-carboxamide] |
| < 500 | Nc1cc(S(=O)(=O)c2ccc(OC(F)(F)F)cc2)c2nc1-c1nnc(o1)C(O)(C(F)(F)F)CCCCC[C@@H]1CCCN21 (single isomer, unassigned) [Compound 152] |
| > 1000 | Nc1cc(S(=O)(=O)c2ccc(OC(F)(F)F)cc2)c2nc1-c1nnc(o1)C(O)(C(F)(F)F)CCCCC[C@@H]1CCCN21 (single isomer, unassigned) [Compound 153] |
| > 1000 | Nc1cc(C(F)(F)F)c2nc1-c1nnc(o1)[C@@](O)(C(F)(F)F)CCCCCC(C(=O)O)N2 (single isomer, unassigned) [Compound 155] |
| < 500 | Nc1cc(C(F)(F)F)c2nc1-c1nnc(o1)[C@@](O)(C(F)(F)F)CCCCCC(C(=O)O)N2 (single isomer, unassigned) [Compound 156] |
| < 500 | Nc1cc(C(F)(F)F)c2nc1-c1nnc(o1)[C@@](O)(C(F)(F)F)CCCCCC(C(=O)N1CCCC1)N2 (single isomer, unassigned) [Compound 157] |
| > 1000 | Nc1cc(C(F)(F)F)c2nc1-c1nnc(o1)[C@@](O)(C(F)(F)F)CCCCCC(C(=O)N1CCCC1)N2 (single isomer, unassigned) [Compound 158] |
| > 1000 | COc1cc2nc(c1N)-c1nnc(o1)C(O)(C(F)(F)F)CCCCC[C@@H]1CCCN21 (single isomer, unassigned) [Compound 159] |
| > 1000 | COc1cc2nc(c1N)-c1nnc(o1)C(O)(C(F)(F)F)CCCCC[C@@H]1CCCN21 (single isomer, unassigned) [Compound 160] |

| EC50 [nM] | Structure (SMILES) |
| --- | --- |
| < 500 | CS(=O)(=O)c1cc(N)c2nc1N1CCC[C@H]1CCCCCC(O)(C(F)(F)F)C1=NN=C2O1 (single isomer, unassigned) [Compound 161] |
| < 500 | Nc1cc(C(F)(F)F)c2nc1-c1nnc(o1)C(O)(C(F)(F)F)CCCOC[C@@H]1CCCN21 (single isomer, unassigned) [Compound 167] |
| > 1000 | COC(=O)c1cc(N)c2nc1N1CCC[C@H]1CCCCCC(O)(C(F)(F)F)C1=NN=C2O1 (single isomer, unassigned) [Compound 169] |
| < 500 | COC(=O)c1cc(N)c2nc1N1CCC[C@H]1CCCCCC(O)(C(F)(F)F)C1=NN=C2O1 (single isomer, unassigned) [Compound 170] |
| < 500 | CC1(C)CCCCC(O)(C(F)(F)F)C2=NN=C(O2)c2nc(c(C(F)(F)F)cc2N)NC1 (single isomer, unassigned) [Compound 171, 17-amino-11,11-dimethyl-6,15-bis(trifluoromethyl)-19-oxa-3,4,13,18-tetrazatricyclo[12.3.1.12,5]nonadeca-1(18),2,4,14,16-pentaen-6-ol] |
| < 500 | CC1(C)CCCCC(O)(C(F)(F)F)C2=NN=C(O2)c2nc(c(C(F)(F)F)cc2N)NC1 (single isomer, unassigned) [Compound 172, 17-amino-11,11-dimethyl-6,15-bis(trifluoromethyl)-19-oxa-3,4,13,18-tetrazatricyclo[12.3.1.12,5]nonadeca-1(18),2,4,14,16-pentaen-6-ol] |
| < 500 | CC1(CO)CCCCC[C@](O)(C(F)(F)F)C2=NN=C(O2)c2nc(c(C(F)(F)F)cc2N)N1 (single isomer, unassigned) [Compound 174] |
| < 500 | CC1(CO)CCCCC[C@](O)(C(F)(F)F)C2=NN=C(O2)c2nc(c(C(F)(F)F)cc2N)N1 (single isomer, unassigned) [Compound 175] |
| < 500 | CC(C)C1CCCCC[C@](O)(C(F)(F)F)C2=NN=C(O2)c2nc(c(C(F)(F)F)cc2N)N1 (single isomer, unassigned) [Compound 178] |
| < 500 | CC(C)C1CCCCC[C@](O)(C(F)(F)F)C2=NN=C(O2)c2nc(c(C(F)(F)F)cc2N)N1 (single isomer, unassigned) [Compound 179] |
| < 500 | Nc1cc(C(F)(F)F)c2nc1-c1nnc(o1)[C@@](O)(C(F)(F)F)CCCCCC(Cc1ccccc1)N2 (single isomer, unassigned) [Compound 180] |
| < 500 | Nc1cc(C(F)(F)F)c2nc1-c1nnc(o1)[C@@](O)(C(F)(F)F)CCCCCC(c1ccc(F)cc1)N2 (single isomer, unassigned) [Compound 182] |
| < 500 | Nc1cc(C(F)(F)F)c2nc1-c1nnc(o1)[C@@](O)(C(F)(F)F)CCCCCC(c1ncco1)N2 (single isomer, unassigned) [Compound 184] |
| > 1000 | CC1(C)CCC(O)CC[C@](O)(C(F)(F)F)C2=NN=C(O2)c2nc(c(C(F)(F)F)cc2N)N1 (single isomer, unassigned) [Compound 189] |
| < 500 | CC1(C)CCC(O)CC[C@](O)(C(F)(F)F)C2=NN=C(O2)c2nc(c(C(F)(F)F)cc2N)N1 (single isomer, unassigned) [Compound 190] |
| < 500 | Nc1cc(C(F)(F)F)c2nc1-c1nnc(o1)[C@@](O)(C(F)(F)F)CCCCCC(C1CC1)N2 (single isomer, unassigned) [Compound 191] |
